Reference: patent US20250353891A1 (MEDIMMUNE LIMITED, priority 2022, published 2025)
Starred links: 1 amine or outer side, 2 acyl side, 3 side chain; linkers in the order of their positions; H or OH if unused. Non-standard residues stand in square brackets, D forms with d. Residues, ends and D or L forms follow the SMILES beside them. Groups on a side chain read outwards from the residue. *: point of attachment. C20 diacid = O=C(O)CCCCCCCCCCCCCCCCCCC(=O)*; C18 diacid = O=C(O)CCCCCCCCCCCCCCCCC(=O)*; γGlu = O=C(O)[C@H](CCC(=O)[*:2])N[*:1]; X3 = O=C(CN(Cc1c[nH]cn1)[*:1])[*:2]; αMeF = C[C@](N)(Cc1ccccc1)C(=O)O; AEEA = NCCOCCOCC(=O)O; Aib = CC(C)(N)C(=O)O

Legend:
[1] = target: human glucagon receptor (hGCGR) (Homo sapiens, UniProt P47871); assay: cAMP production (HTRF) in CHO cells expressing hGCGR; format: cell-based; design: expressed in transfected cells; settings: Table 7, peptides modified at position 20; cAMP in CHO hGCGR cells; geometric mean; read-out: hGluc-R EC50
Sequence of human glucagon receptor (hGCGR) (P47871 26-477): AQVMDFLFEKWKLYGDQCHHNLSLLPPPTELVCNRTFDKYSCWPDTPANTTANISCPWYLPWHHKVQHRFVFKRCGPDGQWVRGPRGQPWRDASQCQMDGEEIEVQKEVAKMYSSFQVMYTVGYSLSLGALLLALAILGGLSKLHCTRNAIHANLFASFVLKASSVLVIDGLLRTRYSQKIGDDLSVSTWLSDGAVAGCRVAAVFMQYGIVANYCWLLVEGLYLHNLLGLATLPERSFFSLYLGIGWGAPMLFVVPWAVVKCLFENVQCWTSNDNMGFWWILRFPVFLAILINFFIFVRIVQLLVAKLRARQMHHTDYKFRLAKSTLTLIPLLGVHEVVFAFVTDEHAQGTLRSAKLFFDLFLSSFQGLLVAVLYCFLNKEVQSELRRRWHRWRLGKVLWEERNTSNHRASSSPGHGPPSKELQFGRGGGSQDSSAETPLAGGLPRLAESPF
How it was run: (§1)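 Read-out: HTRF cAMP (anti-cAMP cryptate donor, cAMP-d2 acceptor in conjugate/lysis buffer), converted to % Delta F and fitted by 4-parameter logistic for EC50. Cell densities were 1×10^5 cells/mL (hGLP-1R) or 2×10^5 cells/mL (hGCGR). Stimulation lasted 30 min at room temperature.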

[2] = target: human GLP-1 receptor (hGLP-1R) (Homo sapiens, UniProt P43220); assay: cAMP production (HTRF) in CHO cells expressing hGLP-1R; format: cell-based; design: expressed in transfected cells; settings: for EC50: Table 7, peptides modified at position 20, cAMP in CHO hGLP-1R cells, geometric mean, read-out: hGLP-1R EC50; for % Relative Potency Ratio: Table 7, % GLP-1R activity relative to GLP-1 / % GlucR activity relative to glucagon
Sequence of human GLP-1 receptor (hGLP-1R) (P43220 24-463): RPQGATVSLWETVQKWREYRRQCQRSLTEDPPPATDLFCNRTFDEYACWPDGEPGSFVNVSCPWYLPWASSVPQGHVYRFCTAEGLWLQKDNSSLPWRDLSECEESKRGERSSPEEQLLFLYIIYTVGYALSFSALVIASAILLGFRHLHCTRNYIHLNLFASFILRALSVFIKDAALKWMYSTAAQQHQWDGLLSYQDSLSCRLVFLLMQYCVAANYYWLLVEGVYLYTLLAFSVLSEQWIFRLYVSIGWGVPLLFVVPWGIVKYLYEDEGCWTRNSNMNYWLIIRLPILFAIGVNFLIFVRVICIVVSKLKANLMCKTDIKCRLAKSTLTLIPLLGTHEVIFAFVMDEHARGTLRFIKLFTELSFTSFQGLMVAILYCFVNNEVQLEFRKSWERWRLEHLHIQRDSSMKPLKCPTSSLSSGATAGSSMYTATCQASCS
How it was run: as §1

`CC[C@H](C)[C@H](NC(=O)[C@H](Cc1c[nH]c2ccccc12)NC(=O)[C@H](CCC(N)=O)NC(=O)[C@@H](NC(=O)[C@](C)(Cc1ccccc1)NC(=O)[C@H](CC(=O)O)NC(=O)[C@H](CCCCNC(=O)COCCOCCNC(=O)COCCOCCNC(=O)CC[C@H](NC(=O)CC[C@H](NC(=O)CCCCCCCCCCCCCCCCCCC(=O)O)C(=O)O)C(=O)O)NC(=O)[C@H](C)NC(=O)[C@H](C)NC(=O)[C@H](CCCNC(=N)N)NC(=O)[C@H](CO)NC(=O)[C@H](CC(=O)O)NC(=O)[C@H](CC(C)C)NC(=O)[C@](C)(Cc1ccccc1)NC(=O)[C@H](CCCCN)NC(=O)[C@H](CO)NC(=O)[C@@H](NC(=O)[C@H](CC(=O)O)NC(=O)[C@H](CO)NC(=O)[C@@H](NC(=O)[C@](C)(Cc1ccccc1)NC(=O)[C@H](CO)NC(=O)CNC(=O)[C@H](Cc1c[nH]cn1)NC(=O)[C@H](CO)NC(=O)CNCc1c[nH]cn1)[C@@H](C)O)C(C)C)C(C)C)C(=O)N[C@@H](C)C(=O)N[C@@H](CC(N)=O)C(=O)N[C@H](C(N)=O)[C@@H](C)O` [Peptide 248] (H-[X3]SHGS[αMeF]TSDVSK[αMeF]LDSRAAK([AEEA-AEEA-γGlu-γGlu-C20 diacid])D[αMeF]VQWIANT-NH2; N-terminus assumed) was tested, and the EC50 [1] was 13.6 nM, the EC50 [2] was 1.09 nM and the “% Relative Potency Ratio” value [2] was 24.6.

With `CC[C@H](C)[C@H](NC(=O)[C@H](CO)NC(=O)[C@H](CCC(=O)O)NC(=O)[C@@H](NC(=O)[C@](C)(Cc1ccccc1)NC(=O)[C@H](CC(=O)O)NC(=O)[C@H](CCCCNC(=O)COCCOCCNC(=O)COCCOCCNC(=O)CC[C@H](NC(=O)CC[C@H](NC(=O)CCCCCCCCCCCCCCCCCCC(=O)O)C(=O)O)C(=O)O)NC(=O)[C@H](C)NC(=O)C(C)(C)NC(=O)[C@H](CCCNC(=N)N)NC(=O)[C@H](CO)NC(=O)[C@H](CC(=O)O)NC(=O)[C@H](CC(C)C)NC(=O)[C@](C)(Cc1ccccc1)NC(=O)[C@H](CCCCN)NC(=O)[C@H](CO)NC(=O)[C@@H](NC(=O)[C@H](CC(=O)O)NC(=O)[C@H](CO)NC(=O)[C@@H](NC(=O)[C@](C)(Cc1ccccc1)NC(=O)[C@H](CO)NC(=O)CNC(=O)[C@H](Cc1c[nH]cn1)NC(=O)C(C)(C)NC(=O)[C@@H](N)Cc1c[nH]cn1)[C@@H](C)O)C(C)C)C(C)C)C(=O)N[C@@H](C)C(=O)N[C@@H](CC(N)=O)C(=O)N[C@H](C(N)=O)[C@@H](C)O` [Peptide 249] (H-H[Aib]HGS[αMeF]TSDVSK[αMeF]LDSR[Aib]AK([AEEA-AEEA-γGlu-γGlu-C20 diacid])D[αMeF]VESIANT-NH2) the EC50 [1] was 0.545 nM, the EC50 [2] was 0.558 nM and the “% Relative Potency Ratio” value [2] was 1.9.

With `CC[C@H](C)[C@H](NC(=O)[C@H](CO)NC(=O)[C@H](CCC(=O)O)NC(=O)[C@@H](NC(=O)[C@](C)(Cc1ccccc1)NC(=O)[C@H](CC(=O)O)NC(=O)[C@H](CCCCNC(=O)COCCOCCNC(=O)COCCOCCNC(=O)CC[C@H](NC(=O)CC[C@H](NC(=O)CCCCCCCCCCCCCCCCC(=O)O)C(=O)O)C(=O)O)NC(=O)[C@H](C)NC(=O)C(C)(C)NC(=O)[C@H](CCCNC(=N)N)NC(=O)[C@H](CO)NC(=O)[C@H](CC(=O)O)NC(=O)[C@H](CC(C)C)NC(=O)[C@](C)(Cc1ccccc1)NC(=O)[C@H](CCCCN)NC(=O)[C@H](CO)NC(=O)[C@@H](NC(=O)[C@H](CC(=O)O)NC(=O)[C@H](CO)NC(=O)[C@@H](NC(=O)[C@](C)(Cc1ccccc1)NC(=O)[C@H](CO)NC(=O)CNC(=O)[C@H](Cc1c[nH]cn1)NC(=O)C(C)(C)NC(=O)[C@@H](N)Cc1c[nH]cn1)[C@@H](C)O)C(C)C)C(C)C)C(=O)N[C@@H](C)C(=O)N[C@@H](CC(N)=O)C(=O)N[C@H](C(N)=O)[C@@H](C)O` [Peptide 250] (H-H[Aib]HGS[αMeF]TSDVSK[αMeF]LDSR[Aib]AK([AEEA-AEEA-γGlu-γGlu-C18 diacid])D[αMeF]VESIANT-NH2) the EC50 [1] was 1.57 nM, the EC50 [2] was 0.601 nM and the “% Relative Potency Ratio” value [2] was 5.2.

With `CC[C@H](C)[C@H](NC(=O)[C@H](CO)NC(=O)[C@H](CCC(=O)O)NC(=O)[C@@H](NC(=O)[C@H](Cc1ccccc1)NC(=O)[C@H](CC(=O)O)NC(=O)[C@H](CCCCNC(=O)COCCOCCNC(=O)COCCOCCNC(=O)CC[C@H](NC(=O)CCCCCCCCCCCCCCCCC(=O)O)C(=O)O)NC(=O)[C@H](C)NC(=O)C(C)(C)NC(=O)[C@H](CCCNC(=N)N)NC(=O)[C@H](CO)NC(=O)[C@H](CC(=O)O)NC(=O)[C@H](CC(C)C)NC(=O)[C@](C)(Cc1ccccc1)NC(=O)[C@H](CCCCN)NC(=O)[C@H](CO)NC(=O)[C@@H](NC(=O)[C@H](CC(=O)O)NC(=O)[C@H](CO)NC(=O)[C@@H](NC(=O)[C@](C)(Cc1ccccc1)NC(=O)[C@H](CO)NC(=O)CNC(=O)[C@H](Cc1c[nH]cn1)NC(=O)C(C)(C)NC(=O)[C@@H](N)Cc1c[nH]cn1)[C@@H](C)O)C(C)C)C(C)C)C(=O)N[C@@H](C)C(=O)N[C@@H](CC(N)=O)C(=O)N[C@H](C(N)=O)[C@@H](C)O` [Peptide 251] (H-H[Aib]HGS[αMeF]TSDVSK[αMeF]LDSR[Aib]AK([AEEA-AEEA-γGlu-C18 diacid])DFVESIANT-NH2; N-terminus assumed) the EC50 [1] was 0.248 nM, the EC50 [2] was 0.0798 nM and the “% Relative Potency Ratio” value [2] was 6.2.

In the case of `CC[C@H](C)[C@H](NC(=O)[C@H](CO)NC(=O)[C@H](CCC(=O)O)NC(=O)[C@@H](NC(=O)[C@H](Cc1ccccc1)NC(=O)[C@H](CC(=O)O)NC(=O)[C@H](CCCCNC(=O)COCCOCCNC(=O)COCCOCCNC(=O)CC[C@H](NC(=O)CCCCCCCCCCCCCCCCCCC(=O)O)C(=O)O)NC(=O)[C@H](C)NC(=O)C(C)(C)NC(=O)[C@H](CCCNC(=N)N)NC(=O)[C@H](CO)NC(=O)[C@H](CC(=O)O)NC(=O)[C@H](CC(C)C)NC(=O)[C@](C)(Cc1ccccc1)NC(=O)[C@H](CCCCN)NC(=O)[C@H](CO)NC(=O)[C@@H](NC(=O)[C@H](CC(=O)O)NC(=O)[C@H](CO)NC(=O)[C@@H](NC(=O)[C@](C)(Cc1ccccc1)NC(=O)[C@H](CO)NC(=O)CNC(=O)[C@H](Cc1c[nH]cn1)NC(=O)C(C)(C)NC(=O)[C@@H](N)Cc1c[nH]cn1)[C@@H](C)O)C(C)C)C(C)C)C(=O)N[C@@H](C)C(=O)N[C@@H](CC(N)=O)C(=O)N[C@H](C(N)=O)[C@@H](C)O` [Peptide 252] (H-H[Aib]HGS[αMeF]TSDVSK[αMeF]LDSR[Aib]AK([AEEA-AEEA-γGlu-C20 diacid])DFVESIANT-NH2), the EC50 [1] is reported as 1.31 nM, the EC50 [2] is reported as 0.119 nM and the “% Relative Potency Ratio” value [2] is reported as 21.7.

With `CC[C@H](C)[C@H](NC(=O)[C@H](CO)NC(=O)[C@H](CCC(=O)O)NC(=O)[C@@H](NC(=O)[C@H](Cc1ccccc1)NC(=O)[C@H](CC(=O)O)NC(=O)[C@H](CCCCNC(=O)COCCOCCNC(=O)CC[C@H](NC(=O)CCCCCCCCCCCCCCCCC(=O)O)C(=O)O)NC(=O)[C@H](C)NC(=O)C(C)(C)NC(=O)[C@H](CCCNC(=N)N)NC(=O)[C@H](CO)NC(=O)[C@H](CC(=O)O)NC(=O)[C@H](CC(C)C)NC(=O)[C@](C)(Cc1ccccc1)NC(=O)[C@H](CCCCN)NC(=O)[C@H](CO)NC(=O)[C@@H](NC(=O)[C@H](CC(=O)O)NC(=O)[C@H](CO)NC(=O)[C@@H](NC(=O)[C@](C)(Cc1ccccc1)NC(=O)[C@H](CO)NC(=O)CNC(=O)[C@H](Cc1c[nH]cn1)NC(=O)C(C)(C)NC(=O)[C@@H](N)Cc1c[nH]cn1)[C@@H](C)O)C(C)C)C(C)C)C(=O)N[C@@H](C)C(=O)N[C@@H](CC(N)=O)C(=O)N[C@H](C(N)=O)[C@@H](C)O` [Peptide 253] (H-H[Aib]HGS[αMeF]TSDVSK[αMeF]LDSR[Aib]AK([AEEA-γGlu-C18 diacid])DFVESIANT-NH2) the EC50 [1] was 0.0531 nM, the EC50 [2] was 0.0755 nM and the “% Relative Potency Ratio” value [2] was 1.4.
